# Patent US20230357210A1, “NITROGEN-CONTAINING CONDENSED HETEROCYCLIC COMPOUND HAVING AN OXIME GROUP, AGRICULTURAL OR HORTICULTURAL HERBICIDE COMPRISING THE COMPOUND, AND METHOD FOR USING THE COMPOUND OR THE HERBICIDE” (NIHON NOHYAKU CO., LTD., priority 2020, published 2023)
row,Structure (SMILES),melting point [°C]
1,"CCO/N=C/c1ccc(C(=O)O)c(-c2nc3cc(SC(F)(F)F)ccc3n2C)n1 [2-81, 6-[(E)-ethoxyiminomethyl]-2-[1-methyl-5-(trifluoromethylthio)benzimidazol-2-yl]pyridine-3-carboxylic acid]",195 to 196
2,"CCO/N=C/c1ccc(C(=O)N(C)C)c(-c2nc3cc(SC(F)(F)F)ccc3n2C)n1 [2-95, 6-[(E)-ethoxyiminomethyl]-N,N-dimethyl-2-[1-methyl-5-(trifluoromethylthio)benzimidazol-2-yl]pyridine-3-carboxamide]",118 to 119
3,"CCO/N=C(\C)c1ccc(C(=O)OC)c(-c2nc3cc(SC(F)(F)F)ccc3n2C)n1 [2-105, 6-[(E)-N-ethoxy-C-methyl-carbonimidoyl]-2-[1-methyl-5-(trifluoromethylthio)benzimidazol-2-yl]pyridine-3-carboxylic acid methyl ester]",121 to 122
4,"CCON=C(N)c1cc(C)c(Cl)c(-c2nc3cc(C(F)(F)F)ccc3n2C)n1 [3-65, 5-chloro-N′-ethoxy-4-methyl-6-[1-methyl-5-(trifluoromethyl)benzimidazol-2-yl]pyridine-2-carboxamidine]",144 to 145
5,"CCO/N=C(\N)c1cnc(S(=O)(=O)NC)c(-c2nc3cc(C(F)(F)F)ccc3n2C)n1 [7-46, (Z)-N′-ethoxy-6-(1-methyl-5-(trifluoromethyl)-1H-benzo[d]imidazol-2-yl)-5-(N-methylsulfamoyl)pyrazine-2-carboximidamide]",244 to 246
6,"CCO/N=C(\N)c1ncc(S(=O)(=O)NC)c(-c2nc3ccccc3n2C)n1 [8-6, (Z)-N′-ethoxy-4-(1-methyl-1H-benzo[d]imidazol-2-yl)-5-(N-methylsulfamoyl)pyrimidine-2-carboximidamide]",222 to 223

# Continued, values first:
row,melting point [°C],Structure (SMILES)
1,149 to 150,"CCON=C(N)c1ccc(S(C)(=O)=O)c(-c2nc3cc(C(F)(F)F)ccc3n2C)n1 [1-205, N′-ethoxy-5-methylsulfonyl-6-[1-methyl-5-(trifluoromethyl)benzimidazol-2-yl]pyridine-2-carboxamidine]"
2,173 to 174,"CCON=C(N)c1ccc(S(=O)(=O)NC)c(-c2nc3cc(C(F)(F)F)ccc3n2C)n1 [1-210, N′-ethoxy-5-methylsulfamoyl-6-[1-methyl-5-(trifluoromethyl)benzimidazol-2-yl)pyridine-2-carboxamidine]"
3,154 to 155,"CCON=C(NC)c1ccc(S(C)(=O)=O)c(-c2nc3cc(C(F)(F)F)ccc3n2C)n1 [1-216, N′-ethoxy-N-methyl-5-methylsulfonyl-6-[1-methyl-5-(trifluor omethyl)benzimidazol-2-yl]pyridine-2-carboxamidine]"
4,150 to 151,"CCON=C(c1ccc(S(C)(=O)=O)c(-c2nc3cc(C(F)(F)F)ccc3n2C)n1)N(C)C [1-220, N′-ethoxy-N,N-dimethyl-5-methylsulfonyl-6-[1-methyl-5-(trifluoromethyl)benzimidazol-2-yl)pyridine-2-carboxamidine]"
5,46 to 47,"CCON=C(N)c1ccc(C(=O)OC)c(-c2nc3cc(C(F)(F)F)ccc3n2C)n1 [2-123, N′-ethoxy-5-methoxycarbonyl-6-[1-methyl-5-(trifluoromethyl)benzimidazol-2-yl)pyridine-2-carboxamidine]"
6,246 to 247,"CCON=C(N)c1cc(C)c(S(C)(=O)=O)c(-c2nc3cc(C(F)(F)F)ccc3n2C)n1 [3-70, N′-ethoxy-4-methyl-5-methylsulfonyl-6-[1-methyl-5-(trifluor omethyl)benzimidazol-2-yl]pyridine-2-carboxamidine]"
